{"source": "paper PMC2222665", "about": "“The dimerization domain of HIV-1 viral infectivity factor Vif is required to block virion incorporation of APOBEC3G” (Retrovirology, 2007)", "origin": "cited, not measured here", "test_system": "HIV-1", "parameters": "method as in PMID 1708976", "conditions": "ref [45],[46]"}
{"smiles": "Cc1cn([C@H]2C[C@H](N=[N+]=[N-])[C@@H](CO)O2)c(=O)[nH]c1=O", "note": "[AZT]", "values": [{"measurement": "IC95 of HIV-1 infectivity", "result": 5, "unit": "µM"}]}
